Assays:
Erg1 = biological target: T1, Erg1 (Saccharomyces cerevisiae, UniProt P32476); type: binding; details: in vivo bound, LC-MS
T1 sequence (P32476 1-496): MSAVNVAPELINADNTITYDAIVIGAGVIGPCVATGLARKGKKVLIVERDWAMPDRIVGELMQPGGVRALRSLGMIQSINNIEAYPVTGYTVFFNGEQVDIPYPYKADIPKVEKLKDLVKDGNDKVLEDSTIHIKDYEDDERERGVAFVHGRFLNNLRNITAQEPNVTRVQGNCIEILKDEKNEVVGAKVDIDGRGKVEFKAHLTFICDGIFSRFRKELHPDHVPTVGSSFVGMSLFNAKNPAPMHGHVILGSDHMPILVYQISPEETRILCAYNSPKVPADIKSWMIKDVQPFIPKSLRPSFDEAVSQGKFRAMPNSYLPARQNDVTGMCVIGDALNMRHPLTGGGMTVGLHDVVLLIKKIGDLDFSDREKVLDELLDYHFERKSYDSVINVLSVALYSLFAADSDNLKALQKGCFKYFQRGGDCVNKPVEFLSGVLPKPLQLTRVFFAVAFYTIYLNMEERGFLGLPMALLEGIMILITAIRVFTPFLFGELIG

[1] = test system: 21 ergosterol biosynthetic proteins (Erg proteins); details: of 21 Erg enzymes, above the control
Erg3 = biological target: T2, Erg3 (Saccharomyces cerevisiae, UniProt P32353); type: binding; details: in vivo bound, LC-MS; known substrate
T2 sequence (P32353 1-365): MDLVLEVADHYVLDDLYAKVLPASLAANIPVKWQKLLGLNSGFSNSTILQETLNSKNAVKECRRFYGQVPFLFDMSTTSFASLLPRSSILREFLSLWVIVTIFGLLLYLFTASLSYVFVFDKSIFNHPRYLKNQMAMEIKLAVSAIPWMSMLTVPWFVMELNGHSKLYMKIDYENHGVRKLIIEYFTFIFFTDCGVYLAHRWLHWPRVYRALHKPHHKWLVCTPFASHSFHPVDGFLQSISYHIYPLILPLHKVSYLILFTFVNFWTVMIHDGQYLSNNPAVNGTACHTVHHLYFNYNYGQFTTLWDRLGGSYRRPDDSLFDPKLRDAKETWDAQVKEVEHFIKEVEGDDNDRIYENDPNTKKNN

ypk1Δ cells [2] = experiment: Growth of kinase deletion strain in the presence of ergosterol inhibitor; type: cell-based, Saccharomyces cerevisiae; details: different concentrations of inhibitor, cell density
ypk1Δ cells [3] = details: ref Gupta et al., 2003; Hillenmeyer et al., 2008; cited from earlier work

SMILES	association with Erg1 among the 21 Erg proteins (Erg1)	number of Erg proteins the metabolite co-purified with [1]	further results
CC(C)=CCC/C(C)=C/CC/C(C)=C/CC/C=C(\C)CC/C=C(\C)CC[C@@H]1OC1(C)C [(S)-2,3-epoxysqualene]	specifically associated only with Erg1		
CC(C)=CCC[C@@H](C)[C@H]1CC[C@@]2(C)C3=C(CC[C@]12C)[C@@]1(C)CC[C@H](O)C(C)(C)[C@@H]1CC3 [lanosterol]		5	
C=C(CC[C@@H](C)[C@H]1CC[C@H]2C3=CC[C@H]4C[C@@H](O)CC[C@]4(C)[C@H]3CC[C@]12C)C(C)C [episterol]		3	binding to Erg3 (Erg3): bound
CC(C)=CCC[C@@H](C)[C@H]1CC[C@H]2C3=C(CC[C@]12C)[C@@]1(C)CCC(=O)C[C@@H]1CC3 [5α-cholesta-8,24-dien-3-one]	specifically associated only with Erg1		
C[C@@H]1[C@H](O)[C@@H](C)/C=C/C=C/CC/C=C/C=C/C=C/C=C/C(O[C@H]2O[C@H](C)[C@@H](O)[C@H](N)[C@@H]2O)CC2O[C@](O)(CC(O)C(O)CCC(O)CC(O)CC(O)CC(=O)O[C@H]1C)CC(O)C2C(=O)O (stereo partly shown) [nystatin]			growth of ypk1Δ cells (ypk1Δ cells [2]): sensitive; sensitivity of yeast strains lacking Ypk1 (ypk1Δ cells [3]): sensitive

— PMC3005334 (Cell, 2010)
